The values below come from ChEMBL document CHEMBL1121950, “Species- or isozyme-specific enzyme inhibitors. 9. Selective effects in inhibitions of rat pyruvate kinase isozymes by adenosine 5'-diphosphate derivatives” (J Med Chem, 1982).

The species named for data set [1] is Rattus norvegicus. In words: Relative half maximal velocity of Pyruvate kinase to Phosphoenolpyruvate was determined.
For data set [2], the target named is Pyruvate kinase PKM (Rattus norvegicus) (UniProt P11980). In words: Ratio of Km(ADP)/Ki or Km for rat muscle pyruvate kinase.
Pyruvate kinase PKM (Rattus norvegicus), sequence (P11980 whole entry): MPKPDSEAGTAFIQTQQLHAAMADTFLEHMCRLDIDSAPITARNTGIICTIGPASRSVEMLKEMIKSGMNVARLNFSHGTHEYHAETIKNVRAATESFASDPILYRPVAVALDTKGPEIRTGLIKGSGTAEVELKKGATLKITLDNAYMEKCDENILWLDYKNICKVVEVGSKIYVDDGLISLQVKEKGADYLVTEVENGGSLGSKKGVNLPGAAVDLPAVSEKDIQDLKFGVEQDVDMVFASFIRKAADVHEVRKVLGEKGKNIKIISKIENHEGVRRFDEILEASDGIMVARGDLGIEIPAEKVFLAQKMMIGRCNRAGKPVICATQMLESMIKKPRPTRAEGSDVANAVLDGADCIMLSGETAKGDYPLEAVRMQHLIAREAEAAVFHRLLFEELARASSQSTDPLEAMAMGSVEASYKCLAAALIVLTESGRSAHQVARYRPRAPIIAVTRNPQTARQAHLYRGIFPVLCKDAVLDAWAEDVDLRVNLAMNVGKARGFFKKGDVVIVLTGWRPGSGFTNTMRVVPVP
For data set [3], the target named is Pyruvate kinase PKLR (Rattus norvegicus) (UniProt P12928). Put plainly: Relative inhibitory potency as ratio of kidney and liver pyruvate kinases.
Pyruvate kinase PKLR (Rattus norvegicus), sequence (P12928 whole entry): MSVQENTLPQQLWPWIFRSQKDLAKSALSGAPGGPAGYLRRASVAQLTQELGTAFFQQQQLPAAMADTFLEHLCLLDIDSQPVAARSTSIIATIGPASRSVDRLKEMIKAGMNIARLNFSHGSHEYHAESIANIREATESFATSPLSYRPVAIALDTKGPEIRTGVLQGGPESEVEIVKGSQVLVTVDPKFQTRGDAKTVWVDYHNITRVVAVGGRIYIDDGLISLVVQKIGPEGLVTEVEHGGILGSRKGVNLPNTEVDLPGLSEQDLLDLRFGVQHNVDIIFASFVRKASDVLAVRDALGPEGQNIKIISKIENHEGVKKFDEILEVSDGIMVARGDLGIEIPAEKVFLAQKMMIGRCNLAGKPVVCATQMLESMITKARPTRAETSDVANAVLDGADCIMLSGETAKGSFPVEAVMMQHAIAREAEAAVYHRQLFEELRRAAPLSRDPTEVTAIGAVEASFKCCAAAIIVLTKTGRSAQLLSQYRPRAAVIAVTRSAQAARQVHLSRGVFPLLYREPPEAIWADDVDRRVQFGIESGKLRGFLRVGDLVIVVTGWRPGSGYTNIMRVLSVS
For data set [4], the target named is Pyruvate kinase PKM (Rattus norvegicus) (UniProt P11980). Put plainly: (§1) Relative half maximal velocity of Pyruvate kinase and Phosphoenolpyruvate.
Data set [5] concerns the target Pyruvate kinase PKLR (Rattus norvegicus) (UniProt P12928). The description is as §1.
For data set [6], the species on record is Rattus norvegicus. In words: Relative inhibitory potency as ratio of muscle and liver pyruvate kinases.
For data set [7], the target named is Pyruvate kinase PKLR (Rattus norvegicus) (UniProt P12928). In words: Ratio of Km(ADP)/Ki or Km for rat liver pyruvate kinase.
For data set [8], the system named is CC(=O)N(C)CCCCN(C)c1ncnc2c1ncn2[C@@H]1O[C@H](COP(=O)(O)OP(=O)(O)O)[C@@H](O)[C@H]1O. In words: (§2) Michaelis-Menten constant for inhibition of pyruvate kinase obtained from rat muscle (PK-M) was determined using ADP as competitive inhibitor.
Data set [9] deals with Nc1ncnc2c1nc(Br)n2[C@@H]1O[C@H](COP(=O)(O)OP(=O)(O)O)[C@@H](O)[C@H]1O. The description is as §2.
In data set [10] the test system is C=CC[C@]1(COP(=O)(O)OP(=O)(O)O)OC(n2cnc3c(N)ncnc32)[C@H](O)[C@@H]1O. The description is as §2.
For data set [11], the system named is C[C@H](OP(=O)(O)OP(=O)(O)O)[C@H]1OC(n2cnc3c(N)ncnc32)[C@H](O)[C@@H]1O. Described as §2.
In data set [12] the test system is CSc1nc(N)c2ncn([C@@H]3O[C@H](COP(=O)(O)OP(=O)(O)O)[C@@H](O)[C@H]3O)c2n1. The data set is described as §2.
Data set [13] deals with Nc1nc(N)c2ncn(C3O[C@H](COP(=O)(O)OP(=O)(O)O)[C@@H](O)[C@H]3O)c2n1. The data set is described as §2.
Data set [14] relates to CO[C@@H]1[C@H](O)[C@@H](COP(=O)(O)OP(=O)(O)O)O[C@H]1n1cnc2c(N)ncnc21. Described as §2.
The subject of data set [15] is CNc1nc2c(N)ncnc2n1C1O[C@H](COP(=O)(O)OP(=O)(O)O)[C@@H](O)[C@H]1O. Described as §2.
For data set [16], the system named is Nc1ncnc2c1ncn2[C@@H]1O[C@H](COP(=O)(O)OP(=O)(O)O)[C@@H](O)[C@H]1O. The data set is described as §2.
Data set [17] deals with CNc1nc(N)c2ncn(C3O[C@H](COP(=O)(O)OP(=O)(O)O)[C@@H](O)[C@H]3O)c2n1. The description is as §2.
In data set [18] the target is Pyruvate kinase PKM (Rattus norvegicus) (UniProt P11980). The data set is described as §1. The source holds these as a separate data set.
Data set [19] shares this target. In words: Ratio of Km(ADP)/Ki or Km for rat muscle pyruvatre kinase; (inhibitory potency at 2.35 mM).
Data set [20] relates to CC(=O)N(C)CCCCN(C)c1ncnc2c1ncn2[C@@H]1O[C@H](COP(=O)(O)OP(=O)(O)O)[C@@H](O)[C@H]1O. Put plainly: (§3) Michaelis-Menten constant for inhibition of pyruvate kinase obtained from rat liver (PK-L) was determined using ADP as competitive inhibitor.
Data set [21] deals with Nc1ncnc2c1nc(Br)n2[C@@H]1O[C@H](COP(=O)(O)OP(=O)(O)O)[C@@H](O)[C@H]1O. The description is as §3.
Data set [22] relates to C=CC[C@]1(COP(=O)(O)OP(=O)(O)O)OC(n2cnc3c(N)ncnc32)[C@H](O)[C@@H]1O. The data set is described as §3.
For data set [23], the system named is C[C@H](OP(=O)(O)OP(=O)(O)O)[C@H]1OC(n2cnc3c(N)ncnc32)[C@H](O)[C@@H]1O. The data set is described as §3.
The test system of data set [24] is CSc1nc(N)c2ncn([C@@H]3O[C@H](COP(=O)(O)OP(=O)(O)O)[C@@H](O)[C@H]3O)c2n1. The data set is described as §3.
Data set [25] deals with Nc1nc(N)c2ncn(C3O[C@H](COP(=O)(O)OP(=O)(O)O)[C@@H](O)[C@H]3O)c2n1. Described as §3.
Data set [26] relates to CO[C@@H]1[C@H](O)[C@@H](COP(=O)(O)OP(=O)(O)O)O[C@H]1n1cnc2c(N)ncnc21. The data set is described as §3.
The subject of data set [27] is CNc1nc2c(N)ncnc2n1C1O[C@H](COP(=O)(O)OP(=O)(O)O)[C@@H](O)[C@H]1O. The data set is described as §3.
For data set [28], the system named is Nc1ncnc2c1ncn2[C@@H]1O[C@H](COP(=O)(O)OP(=O)(O)O)[C@@H](O)[C@H]1O. Described as §3.
For data set [29], the system named is CNc1nc(N)c2ncn(C3O[C@H](COP(=O)(O)OP(=O)(O)O)[C@@H](O)[C@H]3O)c2n1. The description is as §3.

Pyruvate kinase PKLR (Rattus norvegicus), P12928, sequence (P12928 whole entry): as above
Pyruvate kinase PKM (Rattus norvegicus), P11980, sequence (P11980 whole entry): as the sequence (P11980 whole entry) above

As for `CO[C@@H]1[C@H](O)[C@@H](COP(=O)(O)OP(=O)(O)O)O[C@H]1n1cnc2c(N)ncnc21`, the Relative Vmax in data set [1] was found to be 94; in [4], 90; in [5], 100. Also, the Inhibitory potency in data set [2] was 0.74; in data set [7], 0.86. In addition, the results for the Relative inhibitory potency in data set [3] and in data set [6] were 1.04 and 0.86, respectively.
With `Nc1nc(N)c2ncn(C3O[C@H](COP(=O)(O)OP(=O)(O)O)[C@@H](O)[C@H]3O)c2n1` (some centres undefined), the results for the Relative Vmax in data set [1], in data set [4] and in [5] were 90, 77 and 95, respectively. The Inhibitory potency worked out at 2 in data set [2] and 3.3 in [7]. In addition, the Relative inhibitory potency in data set [3] and in data set [6] was 0.61 each time.
For orientation: Km means the substrate concentration at which the rate is half of its maximum. As for “Pyruvate kinase PKM (Rattus norvegicus), P11980”, the Km was determined as 3.6 mM in [8]; 2900 µM in data set [9]; 1300 µM in [10]; 2700 µM in data set [11]; 110 µM in data set [12]; 260 µM in data set [13]. Also, the Km in [14] came to 700 µM; in [15], 560 µM; in [16], 520 µM; in [17], 190 µM.
Take `C=CC[C@]1(COP(=O)(O)OP(=O)(O)O)OC(n2cnc3c(N)ncnc32)[C@H](O)[C@@H]1O` (some centres undefined): the figures for the Relative Vmax in data set [1], in [4] and in data set [5] were 11, 7 and 52, respectively.
Take `CNc1nc2c(N)ncnc2n1C1O[C@H](COP(=O)(O)OP(=O)(O)O)[C@@H](O)[C@H]1O` (some centres undefined): the Relative Vmax in data set [1] was determined as 49; in data set [4] it was 55; in data set [5] it was 40. In addition, the Inhibitory potency came out at 0.93 in data set [2] and 1.9 in data set [7]. For the same molecule, the Relative inhibitory potency stood at 0.45 in [3] and 0.49 in data set [6].
With `C[C@H](OP(=O)(O)OP(=O)(O)O)[C@H]1OC(n2cnc3c(N)ncnc32)[C@H](O)[C@@H]1O` (some centres undefined), the Relative Vmax in data set [1] was determined as 15; in [4], 15; in [5], 26. Also, the Inhibitory potency amounted to 0.19 in [2] and 0.23 in [7]. In addition, the Relative inhibitory potency was 0.74 in data set [3] and 0.83 in data set [6].
`CC1O[C@@H]2[C@H](O1)[C@@H](COP(=O)(O)OP(=O)(O)O)O[C@H]2n1cnc2c(N)ncnc21` (some centres undefined): the Inhibitory potency in [2] came out at 0.325; in data set [7], 0.14. The Relative Vmax in data set [18] and in [4] was 0 in each case. Also, the Relative inhibitory potency in data set [6] was found to be 2.3.
For `CCCNc1nc2c(N)ncnc2n1C1O[C@H](COP(=O)(O)OP(=O)(O)O)[C@@H](O)[C@H]1O` (some centres undefined), the Relative Vmax in data set [1] and in [4] was 0 throughout. In addition, the Inhibitory potency is 0.58 in data set [19] and 0.19 in data set [7]. For the same molecule, the Relative inhibitory potency in data set [6] came to 3.1.
In the case of `CO[C@H]1[C@@H](O)[C@H](n2cnc3c(N)ncnc32)O[C@@H]1COP(=O)(O)OP(=O)(O)O`, the Relative Vmax in [1], in [4] and in data set [5] was > 0 in each case. Also, the Inhibitory potency in [2] came to 0.056; in [7] it was 0.0094. The Relative inhibitory potency in data set [3] amounted to 7.6; in [6], 6.
Consider `C[C@@H](OP(=O)(O)OP(=O)(O)O)[C@H]1OC(n2cnc3c(N)ncnc32)[C@H](O)[C@@H]1O` (some centres undefined), for which the Relative Vmax in data set [1], in data set [4] and in [5] was > 0 in each case. Besides, the Inhibitory potency in data set [2] stood at 0.12; in data set [7], 0.056. The Relative inhibitory potency in data set [3] came to 1.1; in data set [6], 2.1.
With `Nc1ncnc2c1nc(Br)n2[C@@H]1O[C@H](COP(=O)(O)OP(=O)(O)O)[C@@H](O)[C@H]1O`, the Inhibitory potency in [2] was 0.18; in [7] it was 0.13. Also, the Relative inhibitory potency in [3] was found to be 1.3; in data set [6], 1.4. Besides, the Relative Vmax in [18] was determined as 6; in data set [4] it was 6; in data set [5], 14.
Turning to `CNc1nc(N)c2ncn(C3O[C@H](COP(=O)(O)OP(=O)(O)O)[C@@H](O)[C@H]3O)c2n1` (some centres undefined), the Relative Vmax was found to be 85 in [1], 77 in [4] and 86 in data set [5]. Besides, the Inhibitory potency amounted to 2.7 in [2] and 2.5 in data set [7]. Besides, the Relative inhibitory potency in data set [3] was determined as 1.4; in data set [6] it was 1.1.
As to `CSc1nc(N)c2ncn([C@@H]3O[C@H](COP(=O)(O)OP(=O)(O)O)[C@@H](O)[C@H]3O)c2n1`, the Relative Vmax came to 67 in [1], 77 in data set [4] and 72 in [5]. The figures for the Inhibitory potency in [2] and in data set [7] were 4.7 and 5, respectively. Moreover, the figures for the Relative inhibitory potency in data set [3] and in data set [6] were 1.12 and 0.94, respectively.
Regarding `CCSc1nc2c(N)ncnc2n1C1O[C@H](COP(=O)(O)OP(=O)(O)O)[C@@H](O)[C@H]1O` (some centres undefined), the Relative Vmax in [1], in data set [4] and in [5] was 0 throughout. Further, the Inhibitory potency in [2] is 0.14; in data set [7], 0.036. For the same molecule, the values for the Relative inhibitory potency in data set [3] and in data set [6] were 3.6 and 3.9, respectively.
`CCNc1nc2c(N)ncnc2n1C1O[C@H](COP(=O)(O)OP(=O)(O)O)[C@@H](O)[C@H]1O` (some centres undefined): the Relative Vmax in data set [1] is 0.7; in data set [4], < 1; in data set [5], < 1. Moreover, the Inhibitory potency in [2] is 1; in data set [7] it was 0.14. The Relative inhibitory potency came to 1.2 in data set [3] and 7.1 in data set [6].
Take `CSc1nc2c(N)ncnc2n1C1O[C@H](COP(=O)(O)OP(=O)(O)O)[C@@H](O)[C@H]1O` (some centres undefined): the Relative Vmax in [1], in [4] and in data set [5] was 0 throughout. Further, the Inhibitory potency in [2] was 0.12; in data set [7] it was 0.04. Besides, the Relative inhibitory potency was found to be 2.5 in [3] and 3 in data set [6].
For the molecule `CC(=O)N(C)CCCCN(C)c1ncnc2c1ncn2[C@@H]1O[C@H](COP(=O)(O)OP(=O)(O)O)[C@@H](O)[C@H]1O`, the Inhibitory potency in data set [2] stood at 0.14; in [7], 0.43. The Relative inhibitory potency in data set [3] is 0.67; in [6], 0.33.
Consider `Nc1ncnc2c1ncn2[C@@H]1O[C@H](COP(=O)(O)OP(=O)(O)O)[C@@H](O)[C@H]1O`, for which the Relative Vmax in [1], in data set [4] and in data set [5] was 100 in each case.
Take “Pyruvate kinase PKLR (Rattus norvegicus), P12928”: the Km in [20] stood at 700 µM; in [21], 2300 µM; in data set [22], 530 µM; in data set [23], 1300 µM; in data set [24] it was 61 µM; in [25], 90 µM. Also, the Km in [26] worked out at 350 µM; in data set [27], 160 µM; in data set [28] it was 300 µM; in data set [29], 120 µM.
